From publication PMC5428509, “Irreversible inhibition of BTK kinase by a novel highly selective inhibitor CHMFL-BTK-11 suppresses inflammatory response in rheumatoid arthritis model” (Scientific Reports, 2017)

Assays:
Experiment in all cases: biochemical
Design in all cases: KinomeScan competition binding panel (DiscoveRx), percent of control at 1 uM
Conditions in all cases: read-out: Percent Control
CSNK1A1 = CSNK1A1 (Homo sapiens, UniProt P48729)
In short: (§1)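 Selectivity profiled across 456 kinases/mutants by KinomeScan binding technology.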

EGFR(L747-T751del,Sins) = EGFR(L747-T751del,Sins) (Homo sapiens, UniProt P00533, DEL747-750/T751S)
In short: as §1

MLCK = target: T1, MLCK (Homo sapiens, UniProt Q32MK0)
T1 construct: gene MYLK3
In short: as §1

KIT(L576P) = KIT(L576P) (Homo sapiens, UniProt P10721, L576P)
In short: as §1

FLT1 = FLT1 (Homo sapiens, UniProt P17948)
In short: as §1

ERK8 = target: T2, ERK8 (Homo sapiens, UniProt Q8TD08)
T2 construct: gene MAPK15
In short: as §1

PIK3CA(I800L) = PIK3CA(I800L) (Homo sapiens, UniProt P42336, I800L)
In short: as §1

DDR1 = DDR1 (Homo sapiens, UniProt Q08345)
In short: as §1

KIT(D816H) = KIT(D816H) (Homo sapiens, UniProt P10721, D816H)
In short: as §1

PIK3CA(H1047Y) = PIK3CA(H1047Y) (Homo sapiens, UniProt P42336, H1047Y)
In short: as §1

PIK3CG = PIK3CG (Homo sapiens, UniProt P48736)
In short: as §1

EPHA4 = EPHA4 (Homo sapiens, UniProt P54764)
In short: as §1

CAMK2G = CAMK2G (Homo sapiens, UniProt Q13555)
In short: as §1

FGFR3 = FGFR3 (Homo sapiens, UniProt P22607)
In short: as §1

MLK3 = target: T3, MLK3 (Homo sapiens, UniProt Q16584)
T3 construct: gene MAP3K11
In short: as §1

MERTK = MERTK (Homo sapiens, UniProt Q12866)
In short: as §1

MYLK = MYLK (Homo sapiens, UniProt Q15746)
In short: as §1

LATS1 = LATS1 (Homo sapiens, UniProt O95835)
In short: as §1

CHEK1 = CHEK1 (Homo sapiens, UniProt O14757)
In short: as §1

PAK1 = PAK1 (Homo sapiens, UniProt Q13153)
In short: as §1

ABL1-nonphosphorylated = target: T4, ABL1-nonphosphorylated (Homo sapiens, UniProt P00519)
T4 construct: nonphosphorylated
In short: as §1

EGFR(L858R) = EGFR(L858R) (Homo sapiens, UniProt P00533, L858R)
In short: as §1

LOK = target: T5, LOK (Homo sapiens, UniProt O94804)
T5 construct: gene STK10
In short: as §1

RET = RET (Homo sapiens, UniProt P07949)
In short: as §1

BRSK1 = BRSK1 (Homo sapiens, UniProt Q8TDC3)
In short: as §1

MERTK, sequence (Q12866 whole entry): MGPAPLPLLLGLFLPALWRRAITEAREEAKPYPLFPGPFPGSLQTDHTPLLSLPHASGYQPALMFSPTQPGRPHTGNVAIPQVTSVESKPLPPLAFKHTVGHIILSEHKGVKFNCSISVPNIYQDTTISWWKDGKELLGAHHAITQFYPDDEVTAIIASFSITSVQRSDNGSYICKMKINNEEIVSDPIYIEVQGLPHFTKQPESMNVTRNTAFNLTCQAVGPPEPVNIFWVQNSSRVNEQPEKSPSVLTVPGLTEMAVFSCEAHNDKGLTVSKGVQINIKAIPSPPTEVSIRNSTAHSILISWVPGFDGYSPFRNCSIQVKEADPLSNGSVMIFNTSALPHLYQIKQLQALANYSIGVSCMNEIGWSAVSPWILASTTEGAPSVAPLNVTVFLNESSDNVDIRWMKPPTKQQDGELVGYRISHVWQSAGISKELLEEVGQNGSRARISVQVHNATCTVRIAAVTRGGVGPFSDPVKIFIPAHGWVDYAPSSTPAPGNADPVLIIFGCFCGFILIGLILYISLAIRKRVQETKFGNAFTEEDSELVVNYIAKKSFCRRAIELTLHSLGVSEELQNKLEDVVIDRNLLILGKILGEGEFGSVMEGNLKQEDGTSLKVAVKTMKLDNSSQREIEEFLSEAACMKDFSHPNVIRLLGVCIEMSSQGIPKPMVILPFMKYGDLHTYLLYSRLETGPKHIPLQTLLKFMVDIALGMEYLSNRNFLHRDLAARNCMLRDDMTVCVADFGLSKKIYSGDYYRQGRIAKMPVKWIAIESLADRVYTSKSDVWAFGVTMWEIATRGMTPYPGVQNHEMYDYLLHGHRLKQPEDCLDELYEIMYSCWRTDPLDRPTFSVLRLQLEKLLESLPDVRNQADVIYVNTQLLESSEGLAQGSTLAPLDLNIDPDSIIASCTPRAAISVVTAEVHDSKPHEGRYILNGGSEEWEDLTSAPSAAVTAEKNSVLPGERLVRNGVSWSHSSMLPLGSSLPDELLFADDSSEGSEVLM
PIK3CA(H1047Y), sequence (P42336 whole entry H1047Y): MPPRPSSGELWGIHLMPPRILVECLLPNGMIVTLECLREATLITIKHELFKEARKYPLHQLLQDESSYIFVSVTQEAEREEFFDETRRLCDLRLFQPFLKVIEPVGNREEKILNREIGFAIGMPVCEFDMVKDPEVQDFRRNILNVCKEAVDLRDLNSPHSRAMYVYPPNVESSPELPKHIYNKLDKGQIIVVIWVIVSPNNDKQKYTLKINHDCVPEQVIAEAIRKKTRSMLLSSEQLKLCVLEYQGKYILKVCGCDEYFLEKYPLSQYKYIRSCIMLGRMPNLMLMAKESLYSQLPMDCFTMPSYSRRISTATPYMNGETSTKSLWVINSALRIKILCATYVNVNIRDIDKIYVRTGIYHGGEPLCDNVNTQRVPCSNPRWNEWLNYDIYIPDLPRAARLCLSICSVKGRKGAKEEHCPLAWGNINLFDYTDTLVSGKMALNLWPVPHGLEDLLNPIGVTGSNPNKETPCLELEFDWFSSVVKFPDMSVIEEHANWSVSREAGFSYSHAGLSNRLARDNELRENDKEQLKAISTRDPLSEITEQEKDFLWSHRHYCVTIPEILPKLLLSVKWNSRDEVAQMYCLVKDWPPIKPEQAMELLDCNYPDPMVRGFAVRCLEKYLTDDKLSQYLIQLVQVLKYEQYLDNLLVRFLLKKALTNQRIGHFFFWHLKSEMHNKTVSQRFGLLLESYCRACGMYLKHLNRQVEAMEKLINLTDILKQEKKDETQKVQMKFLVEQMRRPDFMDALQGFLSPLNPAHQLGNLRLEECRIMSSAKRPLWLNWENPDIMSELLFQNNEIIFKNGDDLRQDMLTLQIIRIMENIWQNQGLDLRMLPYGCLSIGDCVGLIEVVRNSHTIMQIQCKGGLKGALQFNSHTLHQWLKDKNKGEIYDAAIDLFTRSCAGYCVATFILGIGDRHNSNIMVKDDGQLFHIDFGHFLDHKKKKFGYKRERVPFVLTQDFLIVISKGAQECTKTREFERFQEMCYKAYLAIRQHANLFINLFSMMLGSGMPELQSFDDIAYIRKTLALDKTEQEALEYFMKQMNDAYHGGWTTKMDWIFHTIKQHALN
KIT(L576P), sequence (P10721 whole entry L576P): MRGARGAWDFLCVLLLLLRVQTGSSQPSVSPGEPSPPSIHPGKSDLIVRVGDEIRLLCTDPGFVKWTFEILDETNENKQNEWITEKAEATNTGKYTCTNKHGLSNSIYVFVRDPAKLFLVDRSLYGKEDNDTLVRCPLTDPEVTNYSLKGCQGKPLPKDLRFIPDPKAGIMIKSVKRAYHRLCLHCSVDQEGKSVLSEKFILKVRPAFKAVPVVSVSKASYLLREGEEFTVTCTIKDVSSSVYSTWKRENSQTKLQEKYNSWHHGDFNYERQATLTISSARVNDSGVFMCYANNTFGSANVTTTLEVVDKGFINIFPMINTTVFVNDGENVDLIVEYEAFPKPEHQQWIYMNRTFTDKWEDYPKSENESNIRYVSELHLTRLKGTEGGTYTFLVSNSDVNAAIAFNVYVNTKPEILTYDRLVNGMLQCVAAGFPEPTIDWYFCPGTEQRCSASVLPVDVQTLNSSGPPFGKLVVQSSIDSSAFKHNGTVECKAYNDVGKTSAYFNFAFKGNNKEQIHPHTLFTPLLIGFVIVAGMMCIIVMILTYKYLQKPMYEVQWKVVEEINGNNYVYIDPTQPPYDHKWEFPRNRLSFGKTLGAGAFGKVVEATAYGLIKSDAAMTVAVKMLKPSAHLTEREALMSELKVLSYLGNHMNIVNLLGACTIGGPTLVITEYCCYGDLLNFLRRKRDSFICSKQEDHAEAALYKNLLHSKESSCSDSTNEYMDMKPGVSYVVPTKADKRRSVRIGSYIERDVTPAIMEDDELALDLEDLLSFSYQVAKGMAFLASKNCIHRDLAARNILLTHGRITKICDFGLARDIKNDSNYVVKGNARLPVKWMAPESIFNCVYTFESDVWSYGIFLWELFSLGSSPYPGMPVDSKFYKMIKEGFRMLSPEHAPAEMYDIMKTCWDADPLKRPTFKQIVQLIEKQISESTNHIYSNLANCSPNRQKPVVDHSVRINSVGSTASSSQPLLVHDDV
PIK3CG, sequence (P48736 whole entry): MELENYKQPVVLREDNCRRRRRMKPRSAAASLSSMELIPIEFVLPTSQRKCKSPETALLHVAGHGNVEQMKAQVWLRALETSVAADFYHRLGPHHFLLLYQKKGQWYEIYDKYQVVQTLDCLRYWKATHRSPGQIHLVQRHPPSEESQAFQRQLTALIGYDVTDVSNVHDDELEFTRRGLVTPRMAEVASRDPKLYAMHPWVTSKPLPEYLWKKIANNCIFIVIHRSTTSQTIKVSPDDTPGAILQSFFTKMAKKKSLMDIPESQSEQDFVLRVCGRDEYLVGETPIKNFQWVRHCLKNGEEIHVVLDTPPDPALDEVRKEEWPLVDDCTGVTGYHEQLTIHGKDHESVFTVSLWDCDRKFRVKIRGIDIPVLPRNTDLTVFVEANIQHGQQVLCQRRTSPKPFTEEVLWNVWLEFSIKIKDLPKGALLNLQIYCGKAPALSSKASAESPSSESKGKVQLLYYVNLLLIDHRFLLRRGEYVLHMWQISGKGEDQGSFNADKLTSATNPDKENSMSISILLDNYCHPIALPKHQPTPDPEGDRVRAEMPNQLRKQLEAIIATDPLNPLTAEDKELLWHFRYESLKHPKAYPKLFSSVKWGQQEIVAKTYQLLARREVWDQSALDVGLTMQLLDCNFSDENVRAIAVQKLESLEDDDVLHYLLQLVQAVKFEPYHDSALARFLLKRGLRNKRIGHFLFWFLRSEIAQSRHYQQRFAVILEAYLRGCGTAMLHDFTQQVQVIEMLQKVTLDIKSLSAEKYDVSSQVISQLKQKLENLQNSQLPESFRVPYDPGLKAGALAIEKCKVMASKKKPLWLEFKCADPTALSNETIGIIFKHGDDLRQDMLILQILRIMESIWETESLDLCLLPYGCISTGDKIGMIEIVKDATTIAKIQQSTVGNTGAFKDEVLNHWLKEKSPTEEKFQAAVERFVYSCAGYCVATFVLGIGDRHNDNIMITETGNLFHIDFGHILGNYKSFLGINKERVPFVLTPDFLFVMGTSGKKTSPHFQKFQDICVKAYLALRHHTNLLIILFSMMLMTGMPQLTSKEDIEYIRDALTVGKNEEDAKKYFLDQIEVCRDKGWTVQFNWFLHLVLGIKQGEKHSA
T1 sequence (Q32MK0 whole entry): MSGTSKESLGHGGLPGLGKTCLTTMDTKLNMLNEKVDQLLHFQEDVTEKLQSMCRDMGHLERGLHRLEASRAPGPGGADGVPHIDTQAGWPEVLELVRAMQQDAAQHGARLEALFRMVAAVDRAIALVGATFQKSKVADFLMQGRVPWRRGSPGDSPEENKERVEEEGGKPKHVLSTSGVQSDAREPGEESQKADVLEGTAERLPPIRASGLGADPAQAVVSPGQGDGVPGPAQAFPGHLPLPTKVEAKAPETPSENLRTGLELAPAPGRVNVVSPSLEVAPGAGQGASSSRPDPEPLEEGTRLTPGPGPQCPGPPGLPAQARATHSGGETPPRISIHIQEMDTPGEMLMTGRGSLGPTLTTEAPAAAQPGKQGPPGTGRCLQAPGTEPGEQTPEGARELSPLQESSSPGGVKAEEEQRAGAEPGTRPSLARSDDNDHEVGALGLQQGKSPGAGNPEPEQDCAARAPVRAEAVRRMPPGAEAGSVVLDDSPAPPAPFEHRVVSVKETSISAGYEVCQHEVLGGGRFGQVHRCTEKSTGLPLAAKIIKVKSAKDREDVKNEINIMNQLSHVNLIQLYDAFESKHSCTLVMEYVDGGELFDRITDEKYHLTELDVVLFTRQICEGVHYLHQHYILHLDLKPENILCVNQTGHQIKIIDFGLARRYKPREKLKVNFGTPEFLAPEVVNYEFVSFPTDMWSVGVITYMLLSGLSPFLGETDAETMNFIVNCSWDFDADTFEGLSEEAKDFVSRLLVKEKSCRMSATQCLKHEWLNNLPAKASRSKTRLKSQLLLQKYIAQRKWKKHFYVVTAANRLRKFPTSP
PIK3CA(I800L), sequence (P42336 whole entry I800L): as the sequence (P42336 whole entry H1047Y) above, with I800L, Y1047H counted along it
KIT(D816H), sequence (P10721 whole entry D816H): as the sequence (P10721 whole entry L576P) above, with P576L, D816H counted along it

## C=CC(=O)Nc1cc(-n2c(=O)ccc3cnc4ccc(-n5cccn5)cc4c32)ccc1C [CHMFL-BTK-11]
CSNK1A1
  remaining binding at 1 µM: 100%
EGFR(L747-T751del,Sins)
  remaining binding at 1 µM: 77%
MLCK
  remaining binding at 1 µM: 98%
KIT(L576P)
  remaining binding at 1 µM: 100%
FLT1
  remaining binding at 1 µM: 88%
ERK8
  remaining binding at 1 µM: 99%
PIK3CA(I800L)
  remaining binding at 1 µM: 62%
DDR1
  remaining binding at 1 µM: 100%
KIT(D816H)
  remaining binding at 1 µM: 100%
PIK3CA(H1047Y)
  remaining binding at 1 µM: 82%
PIK3CG
  remaining binding at 1 µM: 73%
EPHA4
  remaining binding at 1 µM: 100%
CAMK2G
  remaining binding at 1 µM: 73%
FGFR3
  remaining binding at 1 µM: 89%
MLK3
  remaining binding at 1 µM: 100%
MERTK
  remaining binding at 1 µM: 100%
MYLK
  remaining binding at 1 µM: 82%
LATS1
  remaining binding at 1 µM: 99%
CHEK1
  remaining binding at 1 µM: 100%
PAK1
  remaining binding at 1 µM: 100%
ABL1-nonphosphorylated
  remaining binding at 1 µM: 74%
EGFR(L858R)
  remaining binding at 1 µM: 70%
LOK
  remaining binding at 1 µM: 97%
RET
  remaining binding at 1 µM: 100%
BRSK1
  remaining binding at 1 µM: 100%
